Data: article PMC1257591, “In Vitro Inhibition of Human Hepatic and cDNA-Expressed Sulfotransferase Activity with 3-Hydroxybenzo[a]pyrene by Polychlorobiphenylols” (Environmental Health Perspectives, 2005)
Read-outs that look alike come from different tables or passages of the source.

What was measured:
Format in all cases: biochemical
SULT1A1*1 = biological target: T1, SULT1A1*1 (Homo sapiens, UniProt P50225); assay: Inhibition of 3-OH-BaP sulfotransferase activity by OH-PCBs with cDNA-expressed SULT1A1*1; details: for IC50: mean of duplicates
T1 construct: made in house; host or cells: Escherichia coli
From the text: (§1) The expression of human SULT1A1*1, SULT1A3, SULT1B1, and SULT1E1 in Escherichia coli has been described previously ([Dajani et al. 1998]; [Wang et al. 1998]). We grew E. coli cells containing the respective sulfotransferase genes as described previously ([Falany et al. 1990], [1994]), and prepared 100,000g supernatant fractions for use in inhibition studies and for partial purification of the SULT enzymes. We purchased expressed SULT1A1*2 cytosolic extract from PanVera (Madison, WI) and used it as supplied.
(§2) We determined SULT activity with 3-OH-BaP as substrate by a fluorimetric assay of BaP-3-SO4 product formation, as described previously ([Wang et al. 2004]). […] Duplicate tubes were prepared for each incubation condition. We examined the kinetics of sulfonation in three liver cytosol fractions by systematically varying the concentration of 3-OH-BaP or PAPS. When the variable substrate was 3-OH-BaP, we used 12 concentrations in the range from 0.035 to 2.00 μM, and the concentration of PAPS was kept constant at 10 μM. When we varied PAPS, we used 7 concentrations from 0.157 to 10.0 μM and kept the concentration of 3-OH-BaP constant at 0.100 μM.
(§3) For each OH-PCB, we examined the concentration dependence of inhibition with three liver cytosol fractions, as well as with cytosol fractions from the E. coli expressing SULT1A1*1, SULT1A3, SULT1B1, and SULT1E1, and the purchased Sf-9 cytosol fraction (PanVera, Madison, WI) containing SULT1A1*2. For studies with HL cytosol, SULT1A1*1, and SULT1E1, we examined two concentrations of 3-OH-BaP, 0.1 μM and 1.0 μM.
(§4) We calculated the effects of OH-PCBs on 3-OH-BaP SULT activity as percentage inhibition compared with the controls without an inhibitor. We obtained IC50 values by fitting log OH-PCB concentration and percent control activity to a sigmoidal curve. We examined the relationships between IC50 and physicochemical properties of the OH-PCBs by linear correlation analysis. We calculated the inhibitory constant (Ki) from the kinetic studies with 4′-OH-CB112 by means of Dixon plots and plots of Km/Vmax against inhibitor concentration ([Cornish-Bowden 1995]).

SULT1A1*2 [1] = biological target: T2, SULT1A1*2 (Homo sapiens, UniProt P50225, R213H); assay: Inhibition of 3-OH-BaP sulfotransferase activity by OH-PCBs with expressed SULT1A1*2
T2 construct: purchased PanVera (Madison, WI); host or cells: Sf-9
From the text: as §1, §2, §3, §4

SULT1A3 = biological target: T3, SULT1A3 (Homo sapiens, UniProt P0DMM9); assay: Inhibition of 3-OH-BaP sulfotransferase activity by 50 μM OH-PCBs with cDNA-expressed SULT1A3; details: for inhibition at 50 µM: read-out: inhibition of 3-OH-BaP sulfonation by SULT1A3
T3 construct: made in house; host or cells: Escherichia coli
From the text: as §1, §2, §3, §4

SULT1E1 = biological target: T4, SULT1E1 (Homo sapiens, UniProt P49888); assay: Inhibition of 3-OH-BaP sulfotransferase activity by OH-PCBs with cDNA-expressed SULT1E1; details: for IC50: mean of duplicates
T4 construct: made in house; host or cells: Escherichia coli
T4 sequence (P49888 1-294): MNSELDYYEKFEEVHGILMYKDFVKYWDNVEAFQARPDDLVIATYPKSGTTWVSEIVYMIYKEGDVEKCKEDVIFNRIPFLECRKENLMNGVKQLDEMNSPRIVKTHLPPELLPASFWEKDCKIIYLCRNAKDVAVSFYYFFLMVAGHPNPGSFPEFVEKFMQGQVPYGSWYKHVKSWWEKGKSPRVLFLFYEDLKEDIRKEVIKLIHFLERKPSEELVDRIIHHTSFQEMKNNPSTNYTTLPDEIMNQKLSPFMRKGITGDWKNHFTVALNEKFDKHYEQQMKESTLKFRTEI
From the text: as §1, §2, §3, §4

SULT1B1 = biological target: T5, SULT1B1 (Homo sapiens, UniProt O43704); assay: Inhibition of 3-OH-BaP sulfotransferase activity by OH-PCBs with cDNA-expressed SULT1B1; details: for IC50: mean of duplicates
T5 construct: made in house; host or cells: Escherichia coli
From the text: as §1, §2, §3, §4

[2] = biological target: HL cytosol sulfotransferase (Homo sapiens, UniProt P50225); assay: Kinetics of 3-OH-BaP sulfonation by human liver cytosol (fluorimetric assay of BaP-3-SO4 formation); details: HL cytosol, 0.1 μM 3-OH-BaP, varying PAPS, mean ± SD n = 3
Experimental: F.P. Guengerich (Vanderbilt University) kindly donated the samples of human liver, which were procured from organ donors ([Guengerich 1995]). We prepared liver cytosolic fractions from four livers by standard methods and stored aliquots at −80°C until use ([Wang et al. 2004]). We used three or four of these cytosol fractions in each experiment.
as §2
(§5) We calculated the enzyme kinetic parameters from studies with variable concentrations of 3-OH-BaP using nonlinear regression analysis and GraphPad 4.0 software (GraphPad Software, San Diego, CA). We selected the built-in Michaelis-Menten equation for most analyses. Where we found evidence of 3-OH-BaP substrate inhibition, we fit the data into an equation derived from a two-substrate model ([Zhang et al. 1998]): […]
(§6) This equation denoted the constant for binding of the first substrate (S) molecule as Km and the second substrate molecule as Ki. V1 is the maximum rate for the noninhibitory substrate concentration range, and V2 is the minimum rate in the inhibitory substrate concentration range

SULT1A1*2 [3] = biological target: T2, SULT1A1*2; assay: Kinetics of 3-OH-BaP sulfonation by expressed SULT1A1*2; details: expressed SULT1A1*2, 0.1 μM 3-OH-BaP, varying PAPS
From the text: as §1, §2
We determined the kinetic parameters for 3-OH-BaP sulfonation by partially purified preparations of the cDNA-expressed SULT isozymes under incubation conditions similar to those used for liver cytosol. For SULT1A1*1 and -1A1*2, we used seven substrate concentrations in the range from 5 to 100 nM; for SULT1E1 we used […] 3-OH-BaP concentrations from 15.6 to 1,000 nM; and for SULT1A3 and 1B1 we used seven concentrations of 3-OH-BaP from 0.25 to 5.0 μM.
as §5, §6

[4] = IC50 SULT1A1*1, 0.1 μM 3-OH-BaP
[5] = IC50 SULT1A1*1, 1.0 μM 3-OH-BaP
[6] = 0.1 μM 3-OH-BaP, read-out: IC50 SULT1A1*1
[7] = 1.0 μM 3-OH-BaP, read-out: IC50 SULT1A1*1
[8] = 0.1 μM 3-OH-BaP, mean of duplicates, read-out: IC50 SULT1A1*2
[9] = 0.1 μM 3-OH-BaP, read-out: IC50 SULT1E1
[10] = 1.0 μM 3-OH-BaP, read-out: IC50 SULT1E1
[11] = 1.0 μM 3-OH-BaP, read-out: IC50 SULT1B1

T2 sequence (P50225 whole entry R213H): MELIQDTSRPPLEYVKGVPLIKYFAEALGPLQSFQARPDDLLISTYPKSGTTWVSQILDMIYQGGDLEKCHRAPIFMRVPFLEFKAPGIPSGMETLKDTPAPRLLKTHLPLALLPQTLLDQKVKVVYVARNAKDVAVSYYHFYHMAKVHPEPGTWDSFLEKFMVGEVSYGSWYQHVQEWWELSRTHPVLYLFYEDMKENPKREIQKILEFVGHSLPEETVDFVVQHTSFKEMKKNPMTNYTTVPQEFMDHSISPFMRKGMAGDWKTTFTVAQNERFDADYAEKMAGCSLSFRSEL
T3 sequence (P0DMM9 whole entry): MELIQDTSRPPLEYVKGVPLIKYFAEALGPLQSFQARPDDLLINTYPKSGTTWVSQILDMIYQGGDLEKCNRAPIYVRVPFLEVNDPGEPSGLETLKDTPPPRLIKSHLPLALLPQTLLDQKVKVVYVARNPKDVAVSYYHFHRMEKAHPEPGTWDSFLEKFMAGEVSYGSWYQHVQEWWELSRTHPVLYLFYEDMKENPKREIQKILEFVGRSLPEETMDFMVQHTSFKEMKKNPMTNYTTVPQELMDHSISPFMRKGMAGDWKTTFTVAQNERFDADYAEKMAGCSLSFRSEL
T5 sequence (O43704 whole entry): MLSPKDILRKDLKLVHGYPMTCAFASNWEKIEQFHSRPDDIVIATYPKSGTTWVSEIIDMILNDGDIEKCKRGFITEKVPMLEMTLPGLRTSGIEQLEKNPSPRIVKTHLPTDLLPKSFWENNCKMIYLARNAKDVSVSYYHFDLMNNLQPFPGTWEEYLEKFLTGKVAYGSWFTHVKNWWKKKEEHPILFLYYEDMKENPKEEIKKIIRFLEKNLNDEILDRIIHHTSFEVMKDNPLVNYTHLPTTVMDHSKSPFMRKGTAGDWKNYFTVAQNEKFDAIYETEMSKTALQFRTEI
Chain of HL cytosol sulfotransferase (P50225 whole entry): as the sequence (P50225 whole entry R213H) above, with H213R counted along it

Structure (SMILES) | inhibition of 3-OH-BaP sulfonation by SULT1A3 (SULT1A3; 50 μM OH-PCB, 1.0 μM 3-OH-BaP) | IC50 (SULT1A1*1; [6]) [µM] | IC50 (SULT1A1*1; [7]) [µM] | IC50 (SULT1A1*2 [1]; [8]) [µM] | IC50 (SULT1E1; [9]) [µM] | IC50 (SULT1E1; [10]) [µM] | IC50 (SULT1B1; [11]) [µM] | inhibition at 50 µM (SULT1A3; 50 μM OH-PCB, 1.0 μM 3-OH-BaP) [%] | other results
Oc1c(Cl)cc(-c2c(Cl)cc(Cl)cc2Cl)cc1Cl [Compound C3, 4′-OH-CB121] | did not inhibit |  |  |  |  |  |  |  | IC50 (SULT1A1*1; [4]): 8.15 µM; IC50 (SULT1A1*1; [5]): 99.5 µM; IC50 (SULT1A1*2 [1]): 6.52 µM; IC50 (SULT1E1; IC50 SULT1E1, 0.1 μM 3-OH-BaP): 7.98 µM; IC50 (SULT1E1; IC50 SULT1E1, 1.0 μM 3-OH-BaP): 16.7 µM; IC50 (SULT1B1; IC50 SULT1B1, 1.0 μM 3-OH-BaP): > 100 µM
Oc1c(Cl)cc(-c2c(Cl)c(Cl)cc(Cl)c2Cl)cc1Cl [Compound C5, 4′-OH-CB165] | did not inhibit | 2.58 | 54.8 | 2.59 | 6.96 | 21.4 | > 100 |  | 
Oc1c(Cl)cc(-c2cc(Cl)ccc2Cl)cc1Cl [Compound C6, 4′-OH-CB72] | did not inhibit | 2.21 | 33.8 | 2.03 | 0.57 | 2.28 | > 100 |  | 
Oc1ccc(-c2c(Cl)cc(Cl)cc2Cl)cc1Cl [Compound B3, 4′-OH-CB69] | did not inhibit | 1.16 | 67.5 | 1.31 | 4.87 | 30.8 | > 100 |  | 
Oc1ccc(-c2cc(Cl)cc(Cl)c2)cc1Cl [Compound B2, 4′-OH-CB36] |  | 1.31 | 28 | 0.94 | 0.45 | 1.89 | 37 | 2 to 20 | 
Oc1c(Cl)cc(-c2cc(Cl)c(Cl)c(Cl)c2Cl)cc1Cl [Compound C4, 4′-OH-CB159] |  | 2.16 | 34.1 | 1.67 | 1.3 | 3.55 | > 100 | 2 to 20 | 
Oc1ccc(-c2cc(Cl)c(Cl)c(Cl)c2Cl)cc1Cl [Compound B4, 4′-OH-CB106] | did not inhibit |  |  |  |  |  |  |  | IC50 (SULT1A1*1; [4]): 1.07 µM; IC50 (SULT1A1*1; [5]): 10.3 µM; IC50 (SULT1A1*2 [1]): 1.06 µM; IC50 (SULT1E1; IC50 SULT1E1, 0.1 μM 3-OH-BaP): 1.18 µM; IC50 (SULT1E1; IC50 SULT1E1, 1.0 μM 3-OH-BaP): 6.97 µM; IC50 (SULT1B1; IC50 SULT1B1, 1.0 μM 3-OH-BaP): 17.4 µM
Oc1ccc(-c2ccc(Cl)c(Cl)c2)cc1Cl [Compound B1, 4′-OH-CB35] |  | 0.77 | 25.2 | 0.55 | 0.24 | 1.02 | 16.8 | 2 to 20 | 
Nc1ncnc2c1ncn2[C@@H]1O[C@H](COP(=O)(O)OS(=O)(=O)O)[C@@H](OP(=O)(O)O)[C@H]1O [PAPS, 3′-phosphoadenosine 5′-phosphosulfate] |  |  |  |  |  |  |  |  | Vmax (varying PAPS) [2]: 48 ± 2 pmol/min/mg protein; Km ([2]; read-out: apparent Km for PAPS): 0.56 ± 0.09 µM; Vmax (varying PAPS) (SULT1A1*2 [3]): 684 pmol/min/mg protein; Km (SULT1A1*2 [3]; read-out: apparent Km for PAPS): 0.32 µM
Oc1c(Cl)cc(-c2cccc(Cl)c2)cc1Cl [Compound C2, 4-OH-CB36] |  | 3.09 | > 100 | 3.05 | 0.41 | 1.65 | 47.5 | 43 | 
Oc1ccc(Cl)cc1-c1ccc(Cl)c(Cl)c1 [Compound A1, 6′-OH-CB35] | did not inhibit | > 100 | > 100 | > 100 | ~100 | > 100 | 4.72 |  | inhibitory potency in words, SULT1A1*1 (SULT1A1*1; both substrate concentrations (0.1 and 1.0 μM 3-OH-BaP)): poor inhibitor; inhibitory potency in words, SULT1E1 (SULT1E1; either substrate concentration (0.1 and 1.0 μM 3-OH-BaP)): poor inhibitor; inhibitory potency in words, SULT1B1 (SULT1B1; 1.0 μM 3-OH-BaP): fairly potent inhibitor
Oc1c(Cl)cc(-c2ccc(Cl)c(Cl)c2)cc1Cl [Compound C1, 4′-OH-CB79] |  |  |  |  |  |  |  |  | IC50 (SULT1A1*1; [4]): 6.65 µM; IC50 (SULT1A1*1; [5]): 59.8 µM; IC50 (SULT1A1*2 [1]): 4.57 µM; inhibition at 50 µM (SULT1A3): 2 to 20%; IC50 (SULT1E1; IC50 SULT1E1, 0.1 μM 3-OH-BaP): 0.5 µM; IC50 (SULT1E1; IC50 SULT1E1, 1.0 μM 3-OH-BaP): 1.32 µM; IC50 (SULT1B1; IC50 SULT1B1, 1.0 μM 3-OH-BaP): 39.9 µM
